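Compound exposure: 48 hours, 5 concentrations, 96-well plates. Here, GI50 denotes the concentration required for 50% inhibition of growth.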 Active and inactive are the calls of the source. Cut-off read from the data, not from the text of the source: active = GI50 up to about 1.1 µM and inactive = higher.
How the values were obtained:
Test in all cases: inhibition of tumour cell growth, NCI panel, 48 h
RPMI-8226 = test system: RPMI-8226
M14 = test system: M14
SNB-75 = test system: SNB-75
SN12C = test system: SN12C
T47D = test system: T47D
HCT-15 = test system: HCT-15
UACC-257 = test system: UACC-257
786-0 = test system: 786-0
ACHN = test system: ACHN
TK-10 = test system: TK-10
SF-268 = test system: SF-268
HT-29 = test system: HT-29
A549 = test system: A549
OVCAR-4 = test system: OVCAR-4
MOLT-4 = test system: MOLT-4
HCC 2998 = test system: HCC 2998
HOP-62 = test system: HOP-62
LOX IMVI = test system: LOX IMVI
PC-3 = test system: PC-3

Measured: GI50

CC1=COC(C)(C=C(C#N)C#N)CC1 (configuration not stated)
> 10 µM: HCT-15
inactive: RPMI-8226 38.5 µM | M14 78.5 µM | SNB-75 65.8 µM | SN12C 49.9 µM | T47D 98.4 µM | UACC-257 57.3 µM | 786-0 > 100 µM | ACHN > 100 µM | TK-10 > 100 µM | SF-268 > 100 µM | HT-29 > 100 µM | A549 > 100 µM | OVCAR-4 > 100 µM | MOLT-4 40.9 µM | HCC 2998 > 100 µM | HOP-62 > 100 µM

CC1=CC(=O)CCC2(C)C1CC[C@@H]2OC=O (some centres not stated)
inactive: RPMI-8226 > 100 µM | M14 > 100 µM | SNB-75 93.5 µM | SN12C > 100 µM | UACC-257 > 100 µM | 786-0 > 100 µM | ACHN > 100 µM | TK-10 > 100 µM | SF-268 > 100 µM | HT-29 > 100 µM | A549 > 100 µM | LOX IMVI > 100 µM | OVCAR-4 > 100 µM | MOLT-4 > 100 µM | HCC 2998 > 100 µM | HOP-62 53.6 µM

COC(=O)c1cc2c3ccccc3n(C(C)=O)c2cn1
68.9 µM: HCT-15
inactive: RPMI-8226 45.4 µM | M14 > 100 µM | SNB-75 25.6 µM | SN12C > 100 µM | UACC-257 > 100 µM | 786-0 > 100 µM | ACHN 53.8 µM | TK-10 45.8 µM | HT-29 > 100 µM | A549 > 100 µM | LOX IMVI 63.4 µM | OVCAR-4 60 µM | MOLT-4 41.6 µM | HCC 2998 > 100 µM | HOP-62 59.6 µM

Cc1cn(C2CC3C(COCN3O)O2)c(=O)[nH]c1=O (configuration not stated)
> 100 µM: HCT-15
inactive: RPMI-8226 > 100 µM | M14 > 100 µM | SNB-75 97.3 µM | SN12C > 100 µM | UACC-257 > 100 µM | 786-0 > 100 µM | ACHN > 100 µM | TK-10 > 100 µM | SF-268 > 100 µM | HT-29 > 100 µM | A549 > 100 µM | LOX IMVI > 100 µM | OVCAR-4 > 100 µM | MOLT-4 > 100 µM | HCC 2998 > 100 µM | HOP-62 > 100 µM

N/C(=N\c1ccc(Cl)cc1)NS(=O)(=O)c1ccc(-c2ncccc2C(F)(F)F)s1
16.6 µM: HCT-15
inactive: PC-3 13.1 µM | RPMI-8226 17.3 µM | M14 14.6 µM | SNB-75 18.8 µM | SN12C 17.2 µM | T47D 12.3 µM | UACC-257 3.17 µM | 786-0 17.1 µM | ACHN 16 µM | TK-10 13.4 µM | SF-268 16.5 µM | HT-29 19.4 µM | A549 15.2 µM | LOX IMVI 14 µM | OVCAR-4 18.5 µM | MOLT-4 12.7 µM | HOP-62 18.2 µM

COc1ccc(-c2cc3ccccc3[nH]c2=O)cc1OC
inactive: RPMI-8226 > 100 µM | M14 > 100 µM | SNB-75 > 100 µM | SN12C > 100 µM | UACC-257 > 100 µM | 786-0 > 100 µM | ACHN > 100 µM | TK-10 > 100 µM | SF-268 > 100 µM | HT-29 > 100 µM | A549 > 100 µM | LOX IMVI > 100 µM | OVCAR-4 > 100 µM | MOLT-4 > 100 µM | HCC 2998 > 100 µM | HOP-62 > 100 µM
> 100 µM: HCT-15

N#Cc1cc2c(cc1Cl)Sc1nccn1S2(=O)=O
active: M14 0.619 µM | HT-29 0.977 µM | MOLT-4 0.667 µM
inactive: PC-3 4 µM | RPMI-8226 2.92 µM | SNB-75 7.53 µM | SN12C 7.57 µM | T47D 1.99 µM | UACC-257 2.21 µM | 786-0 14.8 µM | ACHN 2.08 µM | TK-10 13.5 µM | SF-268 3.33 µM | A549 12.8 µM | LOX IMVI 1.57 µM | OVCAR-4 6.05 µM | HOP-62 3.38 µM
1.25 µM: HCT-15

Cc1nc(Cl)nc(Cl)c1C
> 100 µM: HCT-15
inactive: PC-3 > 100 µM | RPMI-8226 > 100 µM | M14 > 100 µM | SNB-75 > 100 µM | SN12C > 100 µM | UACC-257 > 100 µM | 786-0 > 100 µM | ACHN > 100 µM | TK-10 > 100 µM | SF-268 > 100 µM | HT-29 > 100 µM | A549 > 100 µM | LOX IMVI > 100 µM | OVCAR-4 > 100 µM | MOLT-4 > 100 µM | HCC 2998 > 100 µM | HOP-62 > 100 µM

Source: ChEMBL document CHEMBL1201862, “PubChem BioAssay data set” (2004)
